Test results reported in patent US4882359A, “Azacycloalkane derivatives, absorption promoters containing the derivatives as the effective ingredient and external preparations containing the absorption promoters” (priority 1986, dated 1989).
Where two headings read alike, the source gives them in different places.

Key:
[1] = Percutaneous absorption of pindolol in rats, serum concentration by HPLC; format: in vivo, Wistar-strain male rats; conditions: relative to Control (Vehicle) = 1.0 of the same series in Table 5
Protocol: There were provided groups each consisting of four Wistar-strain male rats each weighing 200 to 250 g and having their dorsal skin hair shorn with an electric shaver.
Each of the test solutions (pindolol-containing preparations) was applied to the shorn dorsal skin of test rats of one of the groups in an amount of 150 μl/2.5×2.5 cm^2 and then sealed up. Three hours after the application of the test solution, the blood of the test rats was collected and measured for serum concentration of pindolol by HPLC.
For comparison, the above procedure was followed except that there was used a control solution which was the same as said test solution except for non-use of any compounds of this invention, and also followed using a comparative test solution which was the same as the test solution except for the substitution of a comparative compound for the compound of this invention.

[2] = Skin penetration of pindolol from test solution, diffusion cell method; format: in vitro ADME, female hairless mice
glucose level in blood [3] = assay: Percutaneous absorption of glibenclamide: glucose level in blood of glucose-loaded rats; format: in vivo, Wistar-strain male rats
Protocol: There were prepared control and test solutions having the following respective formulations (Table 8): […]
In the tests, there were used groups each consisting of four Wistar-strain male rats which weighed about 200 to 250 g and abstained from food for 24 hours.
Each of the control solutions A and B and the test solution indicated in the above Table 8 was applied to the dorsal skins, shorn by an electric clipper or shaver, of the rats of one group in an amount of 175 μl/2.5×2.5 cm^2 and then sealed up. Three hours after sealing up, 1.5 ml of 20% glucose was subcutaneously injected into said rats. Two hours after the glucose injection, the blood of the rats was collected and measured for glucose level in blood.
For comparison, the above procedure was followed except that azone was substituted for the compound of Example 12 in the test solution.
For further comparison, the blood of rats of one group which had been subjected only to 24 hours' abstinence from food (this group being hereinafter referred to as "normal group"), was measured for glucose level in blood. The rat groups to which the control solution A, the control solution B and the test solution were applied, are hereinafter referred to as "control group A", "control group B" and "test group", respectively.

[4] = Skin penetration of 5-FU from test solution, diffusion cell method; format: in vitro ADME, female hairless mice
[5] = Skin penetration of various drugs from test solution, diffusion cell method; format: in vitro ADME, female hairless mice
glucose level in blood [6] = assay: Rectal absorption of insulin from suppository: glucose level in blood of rabbits; format: in vivo, male rabbits; conditions: insulin suppository 0.3 g/kg rectal, 3% promoter where used
Protocol: There were prepared the following suppositories for use in normal, control and test groups, respectively, each group consisting of five male rabbits weighing 2.5 to 3.5 kg each.
The three suppositories were into the rectums of the rabbit groups in an amount of 0.3 g suppository/kg, respectively. Thereafter, blood was collected from the rabbits through their ear vein three times with the lapse of time to measure the three collected blood samples for glucose level in blood by a glucose oxidase method. […] The results are indicated in terms of a change in glucose level in blood with respect to the glucose level in blood prior to the administration of the suppositories.

[7] = Rectal absorption of antibiotics from suppositories, serum concentration by HPLC; format: in vivo, male rabbits; conditions: relative to Control (Vehicle) = 1.0, equals AUC ratio
Protocol: There was prepared the following suppositories of antibiotics for use in control and test groups, respectively, each group consisting of five male rabbits weighing 2.5 to 3.5 kg each.

[8] = Rectal absorption of indomethacin and 5-FU from suppositories; format: in vivo, rabbits
Protocol: Each of male rabbits was fasted for 24 hrs prior to the following Experiment. The two suppositories were into the rectums of the rabbit groups in an amount of 0.3 g suppository/kg, respectively. Thereafter, blood was collected from the rabbits through their ear vein to measure the collected blood samples for the serum concentration of antibiotic by HPLC.
There was prepared test suppositories having the following formulations: […]
The same procedure of Example 151 was followed except that the above suppositories were used and that 3 or 4 rabbits were used in each group.

[9] = test system: dorsal skin of Japanese-native rabbits; assay: Primary skin irritation test (Draize's method); format: in vivo; set-up: key to Average irritation score, 24 hours / Average irritation score, 48 hours / Average irritation score, 72 hours: Draize points: 0-2 mild, 2-6 moderate, 6-8 severe irritation
Protocol: As one of tests on the compounds of this invention for their topical toxicity, a primary skin irritation test was made on skins using rabbits as the subjects. More particularly, an adhesive plaster for use in batch tests, to which 100 μl of a 3% test solution of each of the compounds of Examples 12, 37, 57 and 73 of this invention in 100 ml of polyethylene glycol 300 had dropwise been applied, was applied to the hair-shorn dorsal skin of three Japanese-native rabbits weighing 2.5 to 3.0 kg each and then sealed up on the dorsal skin for 24 hours. The rabbits were evaluated three times for their dorsal skin irritative reaction 24, 48 and 72 hours after removal of the plaster by using a method in accordance with the Draize's method.
The results are as shown in Table 18 in which the overall evaluation is represented by the following equation. [formula] and is graded into mild irritation (0-2 points), moderate irritation (2-6 points) and severe irritation (6-8 points).

[10] = relative to Control (Vehicle) = 1.0; equals ratio of 48 hrs values
Protocol: There were investigated the effects of the compound of this invention on the percutaneous penetration of ketoprofen using the dorsal skin of female hairless mice (each 9 weeks old) by a diffusion cell method which comprised adding 0.5 ml of said test solution to the donor side and measuring the amount of ketoprofen permeated into the receptor layer by performance liquid chromatography (HPLC). For comparison, the above procedure was followed except that a control solution containing no compound of this invention was substituted for said test solution containing the compound of this invention.

[11] = hydrophylic ointment, relative to Control (Vehicle) = 1.0
[12] = gel ointment, relative to Control (Vehicle) = 1.0
[13] = acryl tape, relative to Control (Vehicle) = 1.0
[14] = relative to Control (Vehicle) = 1.0
Protocol: There were investigated the effects of the compound of this invention on the percutneous penetration of phenol red which is difficult to be penetrated using the dorsal skin of female hairless mice (each 9 weeks old) by a diffusion cell method which comprised adding 0.5 ml of a sodium chloride injection containing 2 mM of phenol red to the donor side and measuring the amount of phenol red permeated into the receptor layer by high-pace optimal densitometric meter (559 nm).

in vivo = conditions: rat

CCCCCCCCCCSCCN1CCCC1=O [Example 12]
Activity (serum concentration of pindolol) [1]: 47.8
Cumulative amount of pindolol permeated, 24 hrs later [2]: 50.0 ± 7.0 µM
Cumulative amount of pindolol permeated, 48 hrs later [2]: 127.6 ± 4.8 µM
Activity (pindolol permeation) ([2]; test solution, relative to Control (Vehicle) = 1.0): 34.5
Glucose level (glucose level in blood [3]; glibenclamide 0.6 wt.% solution on dorsal skin, two hours after s.c. 20% glucose): 115 ± 4 mg/dL
Inhibition rate (glucose level in blood [3]; glucose level, relative to control group A and normal group): 46.4%
Cumulative amount of 5-FU permeated, 24 hrs later ([4]; 3.0 wt.% test compound, 5-FU 1.8 wt.% in ethanol/water, 24 hrs): 465 ± 83 µM
Cumulative amount of 5-FU permeated, 48 hrs later ([4]; 3.0 wt.% test compound, 5-FU 1.8 wt.% in ethanol/water, 48 hrs): 963 ± 22 µM
Activity (5-FU permeation) ([4]; relative to Control (Vehicle) = 1.0): 4.7
Activity (skin penetration) ([5]; drug: 1,25-Dihydroxy VD3): 5.4
Activity (skin penetration) ([5]; drug: 8-Bromocyclic AMP): 50.3
Activity (skin penetration) ([5]; drug: Chlordiazepoxide): 4.8
Activity (skin penetration) ([5]; drug: Clonidine): 6.3
Activity (skin penetration) ([5]; drug: Clotrimazole): 3.2
Activity (skin penetration) ([5]; drug: Diazepam): 3.5
Activity (skin penetration) ([5]; drug: Erythromycin): 4.5
Activity (skin penetration) ([5]; drug: Estradiol): 2.0
Activity (skin penetration) ([5]; drug: Ketotifen): 3.8
Activity (skin penetration) ([5]; drug: Lidocain): 10.3
Activity (skin penetration) ([5]; drug: Nicotinic acid): 15.3
Activity (skin penetration) ([5]; drug: Nifedipine): 6.2
Activity (skin penetration) ([5]; drug: Prostaglandin E2): 4.8
Activity (skin penetration) ([5]; drug: Scopolamin): 2.4
Activity (skin penetration) ([5]; drug: Testosterone): 2.5
Activity (skin penetration) ([5]; drug: Triamcinolone): 5.5
Activity (skin penetration) ([5]; drug: p-Aminobenzoic acid): 12.3
Changes of glucose level to the initial, 0.5 hr (glucose level in blood [6]; 0.5 hr): -30 mg/dL
Changes of glucose level to the initial, 1 hr (glucose level in blood [6]; 1 hr): -29 mg/dL
Changes of glucose level to the initial, 3 hrs (glucose level in blood [6]; 3 hrs): -22 mg/dL
Activity (rectal absorption) ([7]; ABPC suppository): 6.3
Activity (rectal absorption) ([7]; CET suppository): 3.0
Activity (rectal absorption) ([8]; drug: 5-FU): 4.8
Activity (rectal absorption) ([8]; drug: Indomethacin): 2.5
Average irritation score, 24 hours ([9]; 3% solution in polyethylene glycol 300, 24 hours after removal of plaster): 0.3 ± 0.3
Average irritation score, 48 hours ([9]; 3% solution in polyethylene glycol 300, 48 hours after removal of plaster): 0.3 ± 0.3
Average irritation score, 72 hours ([9]; 3% solution in polyethylene glycol 300, 72 hours after removal of plaster): 0.5 ± 0.5
Overall evaluation (skin irritation) ([9]; graded from irritation scores at 24, 48 and 72 hours): Mild (mild irritation (0-2 points))
Activity (ketoprofen permeation) [10]: 3.3
Activity (indomethacin permeation) [11]: 3.2
Activity (indomethacin permeation) [12]: 18.4
Activity (pindolol permeation) [13]: 3.9
Activity (phenol red permeation) [14]: 86.5
LD50 at 168 h (in vivo; po): > 5000 mg/kg
LD50 at 168 h (in vivo; sc): > 5000 mg/kg
